These results are taken from US4596810A, “Emulsions of perfluoro octahydro quinolizines useful as blood substitutes” (The Green Cross Corporation, priority 1984, dated 1986).

One data set concerns Wister-strain male rats. Put plainly: Acute Toxicity Test (intravenous). Format: in vivo, rat. The note with it: 100 ml/kg-body weight, isotonized emulsion (Table 4), observed one week. The procedure: The acute toxicity test on the preparations of the present invention was carried out using the preparations of the present invention shown in Table 4 which had been physiologically isotonized. The test animals used were Wister-strain male rats (weighing 100-120 g).

A short description of data set [1]: Distribution of Perfluoro-compound in Organs (gas chromatography). Format: in vivo, Wister-strain male rats. The conditions noted are these: for Residual Rate of perfluorobicyclo compound: 3 Months, 4 g/kg tail vein. From the text: The content of perfluoro-4-methyloctanhydroquinolidine uptake in each organ 1, 2 and 4 weeks and 3 months after the administration are shown in Table 5.

`FC(F)(F)C(F)(F)C1(F)N2C(F)(F)C(F)(F)C(F)(F)C(F)(F)C2(F)C(F)(F)C(F)(F)C1(F)F` (centres unmarked) [perfluoro-4-ethyloctahydroquinolidine]: the death cases entry in the data set on Wister-strain male rats is listed as “no death case”.

Consider `FC(F)(F)C1(F)N2C(F)(F)C(F)(F)C(F)(F)C(F)(F)C2(F)C(F)(F)C(F)(F)C1(F)F` (centres unmarked) [perfluoro-4-methyloctahydroquinolidine], for which the death cases result with Wister-strain male rats was “no death case”. In data set [1] (4 g/kg into the tail vein, 3 months), the “adverse influence on the liver or spleen organ” value was “no evidence of adverse influence on the liver or spleen organ”. For the same compound, the “Residual Rate of perfluorobicyclo compound” value came out at 0.30% in data set [1] (Liver) and 0.09% in data set [1] (Spleen).
